The text below walks through data of patent US20260042764A1, “COMPOSITIONS AND METHODS FOR INHIBITION OF KRAS” (TheRas, Inc., priority 2022, published 2026).

Experiment [1] concerns the target T1, Avi-KRAS WT (2-169) GTP/RAF1 RBD-3xFLAG (51-131) (Homo sapiens, UniProt P01116).
T1 construct: Avi-KRAS WT (2-169)
The experiment can be described thus: Raf1-KRAS WT-GTP disruption HTRF assay (Biological Example 3). It is filed as binding. As to conditions: KRAS WT, GTP-loaded. The procedure, abridged:
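An HTRF assay measured disruption of 50 nM Avi-KRAS (2-169)-GTP (WT, G12C, G12D or G12V) bound to RAF1 RBD-3xFLAG (51-131). Buffer was Tris pH 7.5 with 5 mM MgCl2 and 10% DMSO. Compounds (30–0.005 μM, 3-fold, 10 points) were incubated 1 h at room temperature, and activity is given as % of DMSO.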
On the technique in general: In TR-FRET formats the signal depends on donor and acceptor labels being close together.

Another experiment concerns GP2d cells (KRAS G12D). Kind of experiment: Cell-based pERK HTRF assay in GP2d cell (Biological Example 2). As to conditions: GP2d, GP2d (KRAS G12D) cells. The procedure, abridged:
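Phospho-ERK is measured by HTRF following a 60 min compound exposure at 0.25% DMSO, with a 9-point half-log curve topping at 1 μM or 100 nM.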

For the next experiment, the system named is SW620 cells (KRAS G12V). Kind of experiment: Cell-based pERK HTRF assay in SW620 cell (Biological Example 4). As to conditions: Homo sapiens, SW-620, SW620 (KRAS G12V) cells. The procedure, abridged:
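SW620 seeded in RPMI/10% FBS, next day dosed 4 h (top 1 μM, half-log, 9 pts, 0.25% DMSO). Lysed, pERK by d2/Eu cryptate HTRF, 4–24 h RT, 615 nm read.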

Usually IC50 stands for the concentration at which inhibition is half-maximal. A lower IC50 goes with inhibition by little substance.

T1 sequence (P01116 2-169 isoform P01116-2): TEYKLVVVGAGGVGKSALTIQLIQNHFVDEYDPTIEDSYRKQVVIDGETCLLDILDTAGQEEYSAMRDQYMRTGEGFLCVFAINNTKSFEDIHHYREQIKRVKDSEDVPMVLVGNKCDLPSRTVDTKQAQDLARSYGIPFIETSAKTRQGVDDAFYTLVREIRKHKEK

Take `CCN1C[C@@H](N(CC)c2nc(OC[C@@]34CCCN3C[C@H](F)C4)nc3c(F)c(-c4ccc(F)c5sc(N)c(C#N)c45)c(C(F)(F)F)cc23)CC1=O` [Compound 529, 2-amino-4-(4-(ethyl((S)-1-ethyl-5-oxopyrrolidin-3-yl)amino)-8-fluoro-2-(((2R,7aS)-2-fluorotetrahydro-1H-pyrrolizin-7a(5H)-yl)methoxy)-6-(trifluoromethyl)quinazolin-7-yl)-7-fluorobenzo[b]thiophene-3-carbonitrile]: the IC50 is at most 100 nM in experiment [1]; under 100 nM in the experiment on GP2d cells (KRAS G12D); under 100 nM in the experiment with GP2d cells (KRAS G12D) (pERK HTRF); under 100 nM in the experiment on SW620 cells (KRAS G12V); under 100 nM in the experiment with SW620 cells (KRAS G12V) (pERK HTRF).
For the compound `CCN(c1nc(OC[C@@]23CCCN2C[C@H](F)C3)nc2c(F)c(-c3ccc(F)c4sc(N)c(C#N)c34)c(C(F)(F)F)cc12)[C@H]1C[C@@H]2COC(=O)N2C1` (atropisomer, axis not shown) [Compound 519], the IC50 in experiment [1] is 100 to 1000 nM; with GP2d cells (KRAS G12D), under 100 nM; in the experiment on GP2d cells (KRAS G12D) (pERK HTRF), under 100 nM; in the experiment on SW620 cells (KRAS G12V), under 100 nM; in the experiment with SW620 cells (KRAS G12V) (pERK HTRF), under 100 nM.
Regarding `Cc1c(C(=O)N(C)C)nn2c1CN(c1nc(OC[C@@]34CCCN3C[C@H](F)C4)nc3c(F)c(-c4ccc(F)c5sc(N)c(C#N)c45)c(C(F)(F)F)cc13)CC2` [Compound 501], the IC50 was 100 to 1000 nM in experiment [1]; under 100 nM in the experiment with GP2d cells (KRAS G12D); under 100 nM in the experiment with GP2d cells (KRAS G12D) (pERK HTRF); under 100 nM in the experiment with SW620 cells (KRAS G12V); under 100 nM in the experiment on SW620 cells (KRAS G12V) (pERK HTRF).
On to `CCN(c1nc(OC[C@@]23CCCN2C[C@H](F)C3)nc2c(F)c(-c3ccc(F)c4sc(N)c(C#N)c34)c(C(F)(F)F)cc12)[C@@H]1C[C@H]2CCC(=O)N2C1` (atropisomer, axis not shown) [Compound 532], for which the IC50 is 100 to 1000 nM in experiment [1]; under 100 nM in the experiment with GP2d cells (KRAS G12D); under 100 nM with GP2d cells (KRAS G12D) (pERK HTRF); under 100 nM in the experiment with SW620 cells (KRAS G12V); under 100 nM in the experiment with SW620 cells (KRAS G12V) (pERK HTRF).
As to `CCN(c1nc(OC[C@@]23CCCN2C[C@H](F)C3)nc2c(F)c(-c3ccc(F)c4sc(N)c(C#N)c34)c(C(F)(F)F)cc12)[C@H]1C[C@H](C)N(C(=O)C2COC2)C1` (atropisomer, axis not shown) [Compound 539], the IC50 in experiment [1] was 100 to 1000 nM; in the experiment with GP2d cells (KRAS G12D) it was under 100 nM; with GP2d cells (KRAS G12D) (pERK HTRF) it was under 100 nM; with SW620 cells (KRAS G12V), under 100 nM; in the experiment with SW620 cells (KRAS G12V) (pERK HTRF), under 100 nM.
Regarding `CCN(c1nc(OC[C@@]23CCCN2C[C@H](F)C3)nc2c(F)c(-c3ccc(F)c4sc(N)c(C#N)c34)c(C(F)(F)F)cc12)[C@H]1C[C@H](C)N(C(=O)COC)C1` (atropisomer, axis not shown) [Compound 538], the IC50 in experiment [1] is 100 to 1000 nM; with GP2d cells (KRAS G12D), under 100 nM; in the experiment on GP2d cells (KRAS G12D) (pERK HTRF), under 100 nM; in the experiment with SW620 cells (KRAS G12V), under 100 nM; in the experiment on SW620 cells (KRAS G12V) (pERK HTRF), under 100 nM.
Take `CN(C)C(=O)c1nn2c(c1Cl)CN(c1nc(OC[C@@]34CCCN3C[C@H](F)C4)nc3c(F)c(-c4ccc(F)c5sc(N)c(C#N)c45)c(C(F)(F)F)cc13)CC2` [Compound 517]: the IC50 was 100 to 1000 nM in experiment [1]; under 100 nM in the experiment with GP2d cells (KRAS G12D); under 100 nM with GP2d cells (KRAS G12D) (pERK HTRF); under 100 nM in the experiment with SW620 cells (KRAS G12V); under 100 nM in the experiment with SW620 cells (KRAS G12V) (pERK HTRF).
In the case of `CCN(c1nc(OC[C@@]23CCCN2C[C@H](F)C3)nc2c(F)c(-c3ccc(F)c4sc(N)c(C#N)c34)c(C(F)(F)F)cc12)[C@@H]1CC(=O)N(C2CC2)C1` [Compound 537], the IC50 was 100 to 1000 nM in experiment [1]; under 100 nM with GP2d cells (KRAS G12D); under 100 nM in the experiment with GP2d cells (KRAS G12D) (pERK HTRF); under 100 nM in the experiment on SW620 cells (KRAS G12V); under 100 nM with SW620 cells (KRAS G12V) (pERK HTRF).
For `CCN(c1nc(OC[C@@]23CCCN2C[C@H](F)C3)nc2c(F)c(-c3ccc(F)c4sc(N)c(C#N)c34)c(C(F)(F)F)cc12)[C@H]1CCN(C(=O)N(C)C)C1` (atropisomer, axis not shown) [Compound 540, (3S)-3-[[7-(2-amino-3-cyano-7-fluoro-benzothiophen-4-yl)-8-fluoro-2-[[(2R,8S)-2-fluoro-1,2,3,5,6,7-hexahydropyrrolizin-8-yl]methoxy]-6-(trifluoromethyl)quinazolin-4-yl]-ethyl-amino]-N,N-dimethyl-pyrrolidine-1-carboxamide], the results for the IC50 (in experiment [1]; with GP2d cells (KRAS G12D); in the experiment on SW620 cells (KRAS G12V)) were 100 to 1000 nM, under 100 nM and under 100 nM, respectively.
